Laboratory results published in US9540392B2, “Thienopyrimidines” (BAYER PHARMA AKTIENGESELLSCHAFT, priority 2012, dated 2017).

How the values were obtained:
[1] = target: T1, human full-length MKNK1 (Homo sapiens, UniProt Q9BUB5, T385D); assay: MKNK1 kinase high ATP assay (TR-FRET); assay type: biochemical; conditions: 2 mM ATP, after preincubation with MKNK1; read-out: MKNK1 IC50 (MKNK1 high ATP)
T1 construct: GST (N); purchased Carna Biosciences 02-145; host or cells: insect cells (baculovirus expression system)
T1 sequence (Q9BUB5 1-424 isoform Q9BUB5-2 T344D): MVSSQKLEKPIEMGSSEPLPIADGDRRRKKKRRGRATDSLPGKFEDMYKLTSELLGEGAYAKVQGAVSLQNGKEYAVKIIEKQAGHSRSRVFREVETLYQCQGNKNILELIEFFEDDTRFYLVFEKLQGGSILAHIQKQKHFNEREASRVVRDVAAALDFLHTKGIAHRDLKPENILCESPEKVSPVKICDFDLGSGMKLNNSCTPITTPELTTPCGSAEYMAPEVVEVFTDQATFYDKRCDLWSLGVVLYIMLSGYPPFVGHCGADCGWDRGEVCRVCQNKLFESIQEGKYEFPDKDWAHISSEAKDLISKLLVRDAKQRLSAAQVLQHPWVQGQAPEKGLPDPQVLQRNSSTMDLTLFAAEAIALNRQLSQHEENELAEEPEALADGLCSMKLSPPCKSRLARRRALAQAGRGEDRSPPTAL
Procedure, shortened: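 Compound was preincubated 15 min at 22° C. with MKNK1 in 50 mM HEPES pH 7.5, 5 mM MgCl2, 1.0 mM DTT, then the reaction ran 30 min at 22° C. with 2 mM ATP and 0.06 μM biotinylated peptide (final).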

[2] = test system: eIF4E Ser209 phosphorylation in A549 cells; assay: AlphaScreen SureFire eIF4E Ser209 phosphorylation assay in A549 cells with 20% FCS stimulation; assay type: cell-based; conditions: Homo sapiens, read-out: pEIF4e (IC50 of the EIF4e phosphorylation)
Description: The AlphaScreen SureFire eIF4E Ser209 phoshorylation assay is used to measure the phosphorylation of endogenous eIF4E in cellular lysates. The AlphaScreen SureFire technology allows the detection of phosphorylated proteins in cellular lysates. In this assay, sandwich antibody complexes, which are only formed in the presence of the analyte (p-eIF4E Ser209), are captured by AlphaScreen donor and acceptor beads, bringing them into close proximity. The excitation of the donor bead provokes the release of singlet oxygen molecules that triggers a cascade of energy transfer in the Acceptor beads, resulting in the emission of light at 520-620 nm.
Surefire EIF4e Alphascreen in A549 cells with 20% FCS stimulation
For the assay the AlphaScreen SureFire p-eIF4E Ser209 10K Assay Kit and the AlphaScreen ProteinA Kit (for 10K assay points) both from Perkin Elmer were used. On day one 50.000 A549 cells were plated in a 96-well plate in 100 μL per well in growth medium (DMEM/Hams' F12 with stable Glutamin, 10% FCS) and incubated at 37° C. After attachment of the cells, medium was changed to starving medium (DMEM, 0.1% FCS, without Glucose, with Glutamin, supplemented with 5 g/L Maltose). On day two, test compounds were serially diluted in 50 μL starving medium with a final DMSO concentration of 1% and were added to A549 cells in test plates at a final concentration range from as high 10 μM to as low 10 nM depending on the activities of the tested compounds. Treated cells were incubated at 37° C. for 2 h. 37 ul FCS was added to the wells (=final FCS concentration 20%) for 20 min. Then medium was removed and cells were lysed by adding 50 μL lysis buffer. Plates were then agitated on a plate shaker for 10 min. After 10 min lysis time, 4 μL of the lysate is transferred to a 384 well plate (Proxiplate from Perkin Elmer) and 5 μL Reaction Buffer plus Activation Buffer mix containing AlphaScreen Acceptor beads was added. Plates were sealed with TopSeal-A adhesive film, gently agitated on a plate shaker for 2 hours at room temperature. Afterwards 2 μL Dilution buffer with AlphaScreen Donor beads were added under subdued light and plates were sealed again with TopSeal-A adhesive film and covered with foil. Incubation takes place for further 2 h gently agitation at room temperature. Plates were then measured in an EnVision reader (Perkin Elmer) with the AlphaScreen program. Each data point (compound dilution) was measured as triplicate.
The IC50 values were determined by means of a 4-parameter fit using the company's own software.

| SMILES | IC50 [1] | IC50 [2] |
| --- | --- | --- |
| O=C(NCc1cccc(C(F)(F)F)c1)C1CCc2c(sc3ncnc(Nc4ccc5[nH]ncc5c4)c23)C1 (stereo not shown) [Example 9, 4-(1H-indazol-5-ylamino)-N-[3-(trifluoromethyl)benzyl]-5,6,7,8-tetrahydro[1]benzothieno[2,3-d]pyrimidine-7-carboxamide] | 3 nM | 171 nM |
| O=C(NCc1ccccc1)C1CCc2c(sc3ncnc(Nc4ccc5[nH]ncc5c4)c23)C1 (stereo not shown) [Example 21, N-Benzyl-4-(1H-indazol-5-ylamino)-5,6,7,8-tetrahydro[1] benzothieno [2,3-d]pyrimidine-7-carboxamide] | 3 nM | 381 nM |
| COc1ccccc1NC(=O)C1CCc2c(sc3ncnc(Nc4ccc5[nH]ncc5c4)c23)C1 (stereo not shown) [Example 12, 4-(1H-indazol-5-ylamino)-N-(2-methoxyphenyl)-5,6,7,8-tetrahydro[1]benzothieno[2,3-d]pyrimidine-7-carboxamide] | 8 nM | 252 nM |
| Cc1cccc(NC(=O)C2CCc3c(sc4ncnc(Nc5ccc6[nH]ncc6c5)c34)C2)c1 (stereo not shown) [Example 16, 4-(1H-indazol-5-ylamino)-N-(3-methylphenyl)-5,6,7,8-tetrahydro[1]benzothieno[2,3-d]pyrimidine-7-carboxamide] | 5 nM | 373 nM |
| CN(C)C(=O)CN(C)C(=O)C1CCc2c(sc3ncnc(Nc4ccc5[nH]ncc5c4)c23)C1 (racemic) [Example 120, (RS)-N-[2-(dimethylamino)-2-oxoethyl]-4-(1H-indazol-5-ylamino)-N-methyl-5,6,7,8-tetrahydro[1]benzothieno[2,3-d]pyrimidine-7-carboxamide] | 8.3 nM |  |
| COc1cc2[nH]ncc2cc1Nc1ncnc2sc3c(c12)CCC(C(=O)O)C3 (stereo not shown) [Example 57, 4-[(6-Methoxy-1H-indazol-5-yl)amino]-5,6,7,8-tetrahydro[1]benzothieno[2,3-d]pyrimidine-7-carboxylic acid] | 7 nM |  |
| O=C(NCc1cccs1)C1CCc2c(sc3ncnc(Nc4ccc5[nH]ncc5c4)c23)C1 (racemic) [Example 90, (RS)-4-(1H-indazol-5-ylamino)-N-(thiophen-2-ylmethyl)-5,6,7,8-tetrahydro[1]benzothieno[2,3-d]pyrimidine-7-carboxamide] | 16.4 nM |  |
| COCCCNC(=O)C1CCc2c(sc3ncnc(Nc4ccc5[nH]ncc5c4)c23)C1 (stereo not shown) [Example 48, 4-(1H-Indazol-5-ylamino)-N-(3-methoxypropyl)-5,6,7,8-tetrahydro[1] benzothieno [2,3-d]pyrimidine-7-carboxamide] | 12 nM |  |
| CCOC(=O)C1CCc2c(sc3ncnc(Nc4ccc5[nH]ncc5c4C)c23)C1 (racemic) [Example 60, (RS)-Ethyl 4-[(4-methyl-1H-indazol-5-yl)amino]-5,6,7,8-tetrahydro[1]benzothieno[2,3-d]pyrimidine-7-carboxylate] | 2180 nM |  |
| COCCNC(=O)C1CCc2c(sc3ncnc(Nc4ccc5[nH]ncc5c4)c23)C1 (stereo not shown) [Example 50, 4-(1H-Indazol-5-ylamino)-N-(2-methoxyethyl)-5,6,7,8-tetrahydro[1] benzothieno [2,3-d]pyrimidine-7-carboxamide] | 14 nM |  |

Molecules with a lower IC50 [1], results first:

| IC50 [1] | IC50 [2] | SMILES |
| --- | --- | --- |
| 0.8 nM | 51 nM | COc1cc2[nH]ncc2cc1Nc1ncnc2sc3c(c12)CCC(C(=O)N(C)C)C3 (racemic) [Example 64, (RS)-4-[(6-Methoxy-1H-indazol-5-yl)amino]-N,N-dimethyl-5,6,7,8-tetrahydro[1]benzothieno[2,3-d]pyrimidine-7-carboxamide] |
| 0.7 nM | 203 nM | CCNC(=O)C1CCc2c(sc3ncnc(Nc4cc5cn[nH]c5cc4OC)c23)C1 (stereo not shown) [Example 58, N-Ethyl-4-[(6-methoxy-1H-indazol-5-yl)amino]-5,6,7,8-tetrahydro[1]benzothieno[2,3-d]pyrimidine-7-carboxamide] |
| 2.7 nM | 219 nM | Cc1ccccc1NC(=O)C1CCc2c(sc3ncnc(Nc4ccc5[nH]ncc5c4)c23)C1 (racemic) [Example 75, (RS)-4-(1H-Indazol-5-ylamino)-N-(2-methylphenyl)-5,6,7,8-tetrahydro[1]benzothieno[2,3-d]pyrimidine-7-carboxamide] |
| 2 nM | 412 nM | O=C(NCc1cccc(F)c1)C1CCc2c(sc3ncnc(Nc4ccc5[nH]ncc5c4)c23)C1 (stereo not shown) [Example 18, N-(3-Fluorobenzyl)-4-(1H-indazol-5-ylamino)-5,6,7,8-tetrahydro[1]benzothieno-[2,3-d]pyrimidine-7-carboxamide] |
| 0.5 nM | 343 nM | COc1cc2[nH]ncc2cc1Nc1ncnc2sc3c(c12)CCC(C(=O)N1CCN(C)CC1)C3 (racemic) [Example 65, (RS)-{4-[(6-Methoxy-1H-indazol-5-yl)amino]-5,6,7,8-tetrahydro[1]benzothieno[2,3-d]pyrimidin-7-yl}(4-methylpiperazin-1-yl)methanone] |
| 1.6 nM | 61 nM | COc1cc2[nH]ncc2cc1Nc1ncnc2sc3c(c12)CCC(C(=O)NC(C)C)C3 (racemic) [Example 66, (RS)-4-[(6-Methoxy-1H-indazol-5-yl)amino]-N-(propan-2-yl)-5,6,7,8-tetrahydro[1]benzothieno[2,3-d]pyrimidine-7-carboxamide] |
| 0.4 nM | 90 nM | CC(C)Oc1cc2[nH]ncc2cc1Nc1ncnc2sc3c(c12)CCC(C(=O)N(C)C)C3 (racemic) [Example 70, (RS)—N,N-Dimethyl-4-{[6-(propan-2-yloxy)-1H-indazol-5-yl]amino}-5,6,7,8-tetrahydro[1]benzothieno[2,3-d]pyrimidine-7-carboxamide] |
| 0.5 nM | 32 nM | CC(C)Oc1cc2[nH]ncc2cc1Nc1ncnc2sc3c(c12)CCC(C(=O)N1CCN(C)CC1)C3 (racemic) [Example 71, (RS)-(4-Methylpiperazin-1-yl)(4-{[6-(propan-2-yloxy)-1H-indazol-5-yl]amino}-5,6,7,8-tetrahydro[1]benzothieno[2,3-d]pyrimidin-7-yl)methanone] |
| 0.4 nM |  | COc1cc2[nH]ncc2cc1Nc1ncnc2sc3c(c12)CCC(C(=O)N(CCO)CCO)C3 (racemic) [Example 234, (RS)—N, N-Bis(2-hydroxyethyl)-4-[(6-methoxy-1H-indazol-5-yl)amino]-5,6,7,8-tetrahydro[1]benzothieno[2,3-d]pyrimidine-7-carboxamide] |
| 1.1 nM |  | CCOc1cc2[nH]ncc2cc1Nc1ncnc2sc3c(c12)CCC(C(=O)N(C)CC1CC1)C3 (racemic) [Example 240, (RS)—N-(Cyclopropylmethyl)-4-[(6-ethoxy-1H-indazol-5-yl)amino]-N-methyl-5,6,7,8-tetrahydro[1]benzothieno[2,3-d]pyrimidine-7-carboxamide] |
| 0.5 nM |  | COc1cc2[nH]ncc2cc1Nc1ncnc2sc3c(c12)CCC(C(=O)N(C)C(C)C)C3 (racemic) [Example 173, (RS)—N—Isopropyl-4-[(6-methoxy-1H-indazol-5-yl)amino]-N-methyl-5,6,7,8-tetrahydro[1]benzothieno[2,3-d]pyrimidine-7-carboxamide] |
| 0.6 nM | 75 nM | CC(C)NC(=O)C1CCc2c(sc3ncnc(Nc4cc5cn[nH]c5cc4OC(C)C)c23)C1 (racemic) [Example 72, (RS)—N-(Propan-2-yl)-4-{[6-(propan-2-yloxy)-1H-indazol-5-yl]amino}-5,6,7,8-tetrahydro[1]benzothieno[2,3-d]pyrimidine-7-carboxamide] |
| 0.7 nM |  | CCOc1cc2[nH]ncc2cc1Nc1ncnc2sc3c(c12)CCC(C(=O)N(C)CC)C3 (racemic) [Example 229, (RS)-4-[(6-Ethoxy-1H-indazol-5-yl)amino]-N-ethyl-N-methyl-5,6,7,8-tetrahydro[1]benzothieno[2,3-d]pyrimidine-7-carboxamide] |
| 1.2 nM |  | CN(C)C(=O)C1CCc2c(sc3ncnc(Nc4cc5cn[nH]c5cc4OCCCl)c23)C1 (racemic) [Example 266, (RS)-4-{[6-(2-Chloroethoxy)-1H-indazol-5-yl]amino}-N,N-dimethyl-5,6,7,8-tetrahydro[1]benzothieno[2,3-d]pyrimidine-7-carboxamide] |
